assay: recombinant barcode read abundance after kanamycin selection (control-corrected) (log10(CPM+1)); higher = more efficient recombination; sequences stand for … in AGTGCAGAGAAAATCGGCCAGTTTTCTCTGCCTGCAGTCCGCATGCCGT…AGATTTATGCAGCGGACTGCCTTTCTCCCAAAGTGATAAACCGGACAGTATCATGGACCGGTTTTCCCGGTAATCCGTATTTGCAAGGTTGGTTTCACT; site = the 11-nt target
In short: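 Targets were screened in pooled form in E. coli against IS621 bridge RNA target-binding loops. Recombination efficiency is based on barcode counts at recombinant junctions in counts per million, averaged and corrected for the control. Numbers are shown as log10(CPM+1), with duplicate plates on chloramphenicol/ampicillin LB agar (control) or chloramphenicol/ampicillin/kanamycin with 0.1 mM IPTG.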
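Note: IS621 recombinase and bridge RNA in Escherichia coli cells.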

“TAGCACCCTTGGGTTCTAACCTGTTGCCC (site TAGCACCCTTG)” and “GTGTCATCTTGGGTTCTAACCTGTTGCCT (site GTGTCAGCTAG)” are within 0.2 log units of each other in “recombinant barcode read abundance (log10)” value: 0.0312 for the first, 0.0185 for the second.

“ATTAAATCTTGGGTTCTAACCTGTTGCCT (site ATTAAATCTAG)” and “GATGTGACTTGGGTTCTAACCTGTTGCCT (site GATGCGACTCG)” are within 0.2 log units of each other in “recombinant barcode read abundance (log10)” value: 0.0334 for the first, 0.182 for the second.

Going from “GTGTACCCTTGGGTTCTAACCTGTTGCGC (site GTGTACCCTAC)” to “AGGAATTCTTGGGTTCTAACCTGTTGCCT (site AGGAATTCTAG)”, the “recombinant barcode read abundance (log10)” value rises from 0.587 to 1.59.

“TAAGGTACTTGGGTTCTAACCTGTTGCTT (site TAACGTACTAA)” and “GTCACGCCTTGGGTTCTAACCTGTTGCAT (site GACACACCTAT)” are within 0.2 log units of each other in “recombinant barcode read abundance (log10)” value: 0.151 for the first, 0.0978 for the second.

First: CTACCAGCTTGGGTTCTAACCTGTTGCCT (site CTACCACCTAG)
Second: CCGTCTACTTGGGTTCTAACCTGTTGCTG (site CCGTCTACTCA)
The “recombinant barcode read abundance (log10)” value of the first is lower: 0.0143 for the first, 0.38 for the second.

Compared with “CAAAGTCCTTGGGTTCTAACCTGTTGCTT (site CAAAGTCCTAC)”, “GTCGGAGCTTGGGTTCTAACCTGTTGCAG (site GTCGGAGCTCA)” is higher in “recombinant barcode read abundance (log10)” value: 0.174 for the first, 0.681 for the second.

First: CCTTCCACTTGGGTTCTAACCTGTTGCCT (site ACTTCCACTAG)
Second: GGACGCCCTTGGGTTCTAACCTGTTGCCT (site GGACGTCCTAG)
The “recombinant barcode read abundance (log10)” value of the first is lower: 0.00909 for the first, 0.426 for the second.

Compared with “CACTGCTCTTGGGTTCTAACCTGTTGCCT (site CACTGCTCTAG)”, “GTACGACCTTGGGTTCTAACCTGTTGCAC (site AACAAGACTAG)” is lower in “recombinant barcode read abundance (log10)” value: 1.58 for the first, 0.189 for the second.

Compared with “AACGCCTCTTGGGTTCTAACCTGTTGCCT (site TACGCCTCTAG)”, “CTCAATTCTTGGGTTCTAACCTGTTGCAT (site CTCCATTCTAT)” is lower in “recombinant barcode read abundance (log10)” value: 0.274 for the first, 0.0304 for the second.

First: GGTCCCGCTTGGGTTCTAACCTGTTGCCA (site GGTCCCGCTTG)
Second: ACGGCGCCTTGGGTTCTAACCTGTTGCCT (site ATGGCGCCTAG)
The “recombinant barcode read abundance (log10)” value of the first is higher: 1.77 for the first, 0.182 for the second.

“TTGCTAACTTGGGTTCTAACCTGTTGCCT (site TTGCAAACTAG)” and “GCAATGACTTGGGTTCTAACCTGTTGCCT (site GAAATGACTAG)” are within 0.2 log units of each other in “recombinant barcode read abundance (log10)” value: 0.0817 for the first, 0 for the second.

First: TAGTTTACTTGGGTTCTAACCTGTTGCCA (site TAGTTAACTTG)
Second: CTACCAGCTTGGGTTCTAACCTGTTGCCT (site CTACCAGCTAG)
The “recombinant barcode read abundance (log10)” value of the first is lower: 0.0268 for the first, 1.17 for the second.

Compared with “GGGGCTTCTTGGGTTCTAACCTGTTGCTT (site GGGGCTTCTAA)”, “GTCCCTACTTGGGTTCTAACCTGTTGCCG (site GTCGCTACTCG)” is lower in “recombinant barcode read abundance (log10)” value: 0.913 for the first, 0 for the second.

Going from “GTGGAGTCTTGGGTTCTAACCTGTTGCCT (site GTGGAGTCTAG)” to “CTTCAGACTTGGGTTCTAACCTGTTGCTA (site CCTCAGACTTC)”, the “recombinant barcode read abundance (log10)” value falls from 2.5 to 0.0983.

First: CGTAGGACTTGGGTTCTAACCTGTTGCCT (site TGTAGGACTAG)
Second: TAGATCGCTTGGGTTCTAACCTGTTGCAG (site TAGATCGCTCT)
The “recombinant barcode read abundance (log10)” value of the first is lower: 0.0115 for the first, 1.44 for the second.

Compared with “TTCCTATCTTGGGTTCTAACCTGTTGCCT (site TTCCTATCTAG)”, “TAGAATCCTTGGGTTCTAACCTGTTGCAT (site TAGAATCCTGT)” is lower in “recombinant barcode read abundance (log10)” value: 0.354 for the first, 0.0579 for the second.

Compared with “ACAATCTCTTGGGTTCTAACCTGTTGCTC (site ACAATCTCTGA)”, “TAGTTAGCTTGGGTTCTAACCTGTTGCCA (site TAGTTAGCTTG)” is lower in “recombinant barcode read abundance (log10)” value: 1.22 for the first, 0.418 for the second.

Going from “CCTCGCACTTGGGTTCTAACCTGTTGCCT (site CTTCGCACTAG)” to “ATTGAGACTTGGGTTCTAACCTGTTGCTT (site ATTGAGACTAA)”, the “recombinant barcode read abundance (log10)” value rises from 0.0293 to 1.33.

“ATGCCTACTTGGGTTCTAACCTGTTGCCT (site ATGCCTACTAG)” and “ACGGCCTCTTGGGTTCTAACCTGTTGCTT (site ACGGCATCTAG)” are within 0.2 log units of each other in “recombinant barcode read abundance (log10)” value: 0.337 for the first, 0.276 for the second.

“GCCAACCCTTGGGTTCTAACCTGTTGCAT (site GCCAACCCTAC)” and “GGGTCGGCTTGGGTTCTAACCTGTTGCGC (site GGGTCGGCTAC)” are within 0.2 log units of each other in “recombinant barcode read abundance (log10)” value: 0.0603 for the first, 0.0769 for the second.

Compared with “GTTGGTCCTTGGGTTCTAACCTGTTGCCT (site GTGGTTCCTAG)”, “GTTAACTCTTGGGTTCTAACCTGTTGCCT (site GTCAACTCTAG)” is higher in “recombinant barcode read abundance (log10)” value: 0.114 for the first, 0.51 for the second.

“CTAGGCCCTTGGGTTCTAACCTGTTGCTT (site CTAGGCCCTAT)” and “GCTGCGACTTGGGTTCTAACCTGTTGCCT (site GCTGCGACTAG)” are within 0.2 log units of each other in “recombinant barcode read abundance (log10)” value: 0.939 for the first, 0.972 for the second.

“GAAGCCGCTTGGGTTCTAACCTGTTGCCT (site GAAGACGCTAG)” and “AGCTTAGCTTGGGTTCTAACCTGTTGCCG (site AGCTTAGCTCG)” are within 0.2 log units of each other in “recombinant barcode read abundance (log10)” value: 0.0292 for the first, 0.19 for the second.

“ACGTCTCCTTGGGTTCTAACCTGTTGCTG (site ACGTCTCCTCA)” and “GTCACTACTTGGGTTCTAACCTGTTGCCG (site GTCGCTACTCG)” are within 0.2 log units of each other in “recombinant barcode read abundance (log10)” value: 0.162 for the first, 0.0416 for the second.

“AGGTCACCTTGGGTTCTAACCTGTTGCAT (site AGGTCACCTAG)” and “AGCACGACTTGGGTTCTAACCTGTTGCTG (site AGCAGGACTCG)” are within 0.2 log units of each other in “recombinant barcode read abundance (log10)” value: 0.128 for the first, 0.157 for the second.

First: AGAGAGTCTTGGGTTCTAACCTGTTGCTT (site ATAGAGTCTAA)
Second: CATTGCCCTTGGGTTCTAACCTGTTGCCT (site CATTGCCCTAG)
The “recombinant barcode read abundance (log10)” value of the first is higher: 0.602 for the first, 0.234 for the second.

Going from “AACAGTACTTGGGTTCTAACCTGTTGCCT (site GACAGTACTAG)” to “TCTTGTCCTTGGGTTCTAACCTGTTGCGT (site TCTTGTCCTAC)”, the “recombinant barcode read abundance (log10)” value rises from 0.129 to 0.682.

First: CAAACTACTTGGGTTCTAACCTGTTGCAC (site CAAACTACTTA)
Second: CAGTCTACTTGGGTTCTAACCTGTTGCGT (site TCAAGCCCTCT)
The “recombinant barcode read abundance (log10)” value of the first is lower: 0.0177 for the first, 0.292 for the second.

First: AGACAGACTTGGGTTCTAACCTGTTGCGT (site CAGAGCTCTCG)
Second: TAGCCGACTTGGGTTCTAACCTGTTGCCT (site TAGCGGACTAG)
The “recombinant barcode read abundance (log10)” value of the first is lower: 0.0309 for the first, 0.251 for the second.

Going from “GGTGGCCCTTGGGTTCTAACCTGTTGCCT (site GTTGGCCCTAG)” to “AAGGACGCTTGGGTTCTAACCTGTTGCCT (site AAGGTCGCTAG)”, the “recombinant barcode read abundance (log10)” value falls from 0.296 to 0.0217.

Compared with “GGCTGTTCTTGGGTTCTAACCTGTTGCCT (site GCCTGTTCTAG)”, “CTTACTACTTGGGTTCTAACCTGTTGCCT (site CTTACTACTAG)” is lower in “recombinant barcode read abundance (log10)” value: 0.425 for the first, 0.126 for the second.

“GATTTCTCTTGGGTTCTAACCTGTTGCCT (site TATTTCTCTAG)” and “TGACAGTCTTGGGTTCTAACCTGTTGCAG (site CACTTAACTTG)” are within 0.2 log units of each other in “recombinant barcode read abundance (log10)” value: 0.124 for the first, 0.0862 for the second.

Compared with “TGTCCCGCTTGGGTTCTAACCTGTTGCCT (site TGTCCCGCTAG)”, “CGGCAGTCTTGGGTTCTAACCTGTTGCGT (site CGGCAGTCTAC)” is higher in “recombinant barcode read abundance (log10)” value: 0.708 for the first, 2.6 for the second.

First: AGTTAGCCTTGGGTTCTAACCTGTTGCCT (site AGTTAGCCTAG)
Second: GTCGGGTCTTGGGTTCTAACCTGTTGCCT (site GTCCGGTCTAA)
The “recombinant barcode read abundance (log10)” value of the first is higher: 0.361 for the first, 0.054 for the second.

“TCCTACCCTTGGGTTCTAACCTGTTGCCT (site TACTACCCTAG)” and “GGTTGGCCTTGGGTTCTAACCTGTTGCGG (site GGTTGACCTCC)” are within 0.2 log units of each other in “recombinant barcode read abundance (log10)” value: 0.0977 for the first, 0.257 for the second.

First: TCGCGTTCTTGGGTTCTAACCTGTTGCTT (site TCGCGTTCTAA)
Second: CGAAGCTCTTGGGTTCTAACCTGTTGCCT (site CGTAGCTCTAG)
The “recombinant barcode read abundance (log10)” value of the first is higher: 0.677 for the first, 0.223 for the second.

Compared with “GGGTCGGCTTGGGTTCTAACCTGTTGCGG (site GGGTCGGCTGC)”, “CATGTGCCTTGGGTTCTAACCTGTTGCCT (site CATGTGCCTAG)” is higher in “recombinant barcode read abundance (log10)” value: 0.0285 for the first, 1.89 for the second.

“TGCGCGACTTGGGTTCTAACCTGTTGCCT (site TGCGCAACTAG)” and “AGACCATCTTGGGTTCTAACCTGTTGCCT (site AGATCATCTAA)” are within 0.2 log units of each other in “recombinant barcode read abundance (log10)” value: 0.0131 for the first, 0.162 for the second.

Going from “AGTTAGCCTTGGGTTCTAACCTGTTGCCT (site AGTAAGCCTAG)” to “TAGGGCACTTGGGTTCTAACCTGTTGCTG (site TAGGGCACTCA)”, the “recombinant barcode read abundance (log10)” value rises from 0.107 to 2.1.

First: ACGCCCTCTTGGGTTCTAACCTGTTGCCT (site ACGCCCTCTAG)
Second: CTAGGCCCTTGGGTTCTAACCTGTTGCCT (site CTAGGCCCTAT)
The “recombinant barcode read abundance (log10)” value of the first is lower: 0.0283 for the first, 0.506 for the second.

First: GCGGCTTCTTGGGTTCTAACCTGTTGCCT (site GCGGCTTCTAG)
Second: TTAGGGACTTGGGTTCTAACCTGTTGCCT (site TTAGGGACTAG)
The “recombinant barcode read abundance (log10)” value of the first is lower: 0.868 for the first, 2.18 for the second.

Compared with “CGATTAGCTTGGGTTCTAACCTGTTGCCG (site ATTCACACTAC)”, “TCTCATTCTTGGGTTCTAACCTGTTGCGT (site TCTCATTCTAC)” is higher in “recombinant barcode read abundance (log10)” value: 0.0236 for the first, 0.937 for the second.

First: AGTAATTCTTGGGTTCTAACCTGTTGCCT (site AGGAATTCTAG)
Second: CTAAGAGCTTGGGTTCTAACCTGTTGCCG (site CTAAGAGCTCT)
The “recombinant barcode read abundance (log10)” value of the first is lower: 0.0166 for the first, 0.504 for the second.

Source: the supplement of paper PMC11208160
